Holding throughout (assay): DTP human tumour cell line panel, 48 h
The subject of assay [1] is HOP-92 NSCLC.
Assay [2] relates to SF-295 CNS.
Assay [3] has as its system IGROV1 ovarian.
The subject of assay [4] is SK-OV-3 ovarian.
Assay [5] concerns T-47D breast.
The test system of assay [6] is NCI/ADR-RES ovarian.
Assay [7] deals with KM12 colon.
In assay [8] the test system is RPMI-8226 leukemia.

Molecules are shown by their SMILES.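 Each compound was tested at five concentrations against cells in 96-well plates for 48 hours. GI50 is the concentration that inhibits growth by half. TGI: total growth inhibition.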 Where only a bound is given, the exact number is not on record here.

As for `COc1ccc(CNc2c3ccccc3nc3ccccc23)cc1OC`, the GI50 was 1.62 µM in assay [1]; 2.19 µM in assay [2]; 2.3 µM in assay [3]; 2.44 µM in assay [4]; 3.43 µM in assay [5]; 1.75 µM in assay [6]. The GI50 in assay [7] was 3.65 µM; in assay [8] it was 2.2 µM. The total growth inhibition concentration (TGI) in assay [1] stood at 7.83 µM; in assay [2], 7.2 µM; in assay [3], 6.55 µM; in assay [4], 8.33 µM; in assay [5], 14.1 µM; in assay [6] it was 6.61 µM. Besides, the values for the concentration for total growth inhibition (TGI) in assay [7] and in assay [8] were 15.5 µM and 5.59 µM, respectively.

Consider `CCN1C(=O)N(CC)C2C1NC(=S)N2/N=C/C=C/c1cccs1` (stereo unspecified), for which the GI50 in assay [1] is 13.4 µM; in assay [2], 0.258 µM; in assay [3] it was 0.569 µM; in assay [4], 0.339 µM; in assay [5] it was 0.428 µM; in assay [6] it was 0.296 µM. Also, the 50% growth inhibitory concentration (GI50) in assay [7] is 0.312 µM; in assay [8] it was 0.413 µM. In addition, the TGI in assay [1], in assay [2], in assay [3], in assay [4], in assay [5] and in assay [6] was more than 100 µM in each case. Moreover, the TGI was more than 100 µM in assay [7] and more than 38.9 µM in assay [8].

As to `O=C(O)c1ccccc1-c1ccccc1C(=O)Nc1ccc2c(c1)Cc1cc(F)ccc1-2`, the TGI in assay [1] was more than 100 µM; in assay [2], 94.2 µM; in assay [3], more than 100 µM; in assay [4] it was more than 100 µM; in assay [5], more than 100 µM; in assay [6], more than 100 µM. Moreover, the figures for the concentration for total growth inhibition (TGI) in assay [7] and in assay [8] were more than 100 µM and 82.8 µM, respectively.

`O=C(O)Cc1c(O)ccc2ccccc12`: the TGI in assay [1], in assay [2], in assay [3], in assay [4], in assay [5] and in assay [6] was more than 100 µM in each case. Further, the total growth inhibition concentration (TGI) in assay [7] and in assay [8] was more than 100 µM each time.

Take `CC(=O)c1c(CBr)n([O-])c2ccccc2[n+]1=O`: the GI50 is 7.36 µM in assay [1]; 19.8 µM in assay [2]; 13.6 µM in assay [3]; 22.9 µM in assay [4]; 2.87 µM in assay [5]; 19.5 µM in assay [6]. Further, the GI50 in assay [7] is 15 µM; in assay [8], 4.9 µM. In addition, the TGI in assay [1] amounted to 24 µM; in assay [2] it was 43.8 µM; in assay [3], 29.2 µM; in assay [4] it was 71 µM; in assay [5], 11.4 µM; in assay [6], 50.3 µM. Moreover, the results for the TGI in assay [7] and in assay [8] were 29.2 µM and 30.5 µM, respectively.

Consider `CCCCCc1c(C)[nH]c(/C=C2\N=C(c3ccc[nH]3)C=C2CC)c1C`, for which the 50% growth inhibitory concentration (GI50) in assay [1] is less than 0.013 µM; in assay [2], less than 0.01 µM; in assay [3], 0.0268 µM; in assay [4], 0.0609 µM; in assay [5] it was 0.0187 µM; in assay [6], 0.0139 µM. The GI50 in assay [7] and in assay [8] was less than 0.01 µM in each case. The TGI in assay [1] was 0.0426 µM; in assay [2], 0.0363 µM; in assay [3], 0.163 µM; in assay [4], 0.383 µM; in assay [5], 0.149 µM; in assay [6], 0.124 µM. For the same molecule, the concentration for total growth inhibition (TGI) in assay [7] is 0.191 µM; in assay [8] it was 0.0962 µM.

In the case of `CN(C)c1ccc2nc3ccc(=O)cc-3sc2c1`, the GI50 in assay [1] was 1.46 µM; in assay [2] it was 1.52 µM; in assay [3], 2.48 µM; in assay [4], 6.02 µM; in assay [5], 1 µM; in assay [6] it was 0.665 µM. Also, the figures for the GI50 in assay [7] and in assay [8] were 0.781 µM and 0.199 µM, respectively. For the same molecule, the TGI is 29.5 µM in assay [1]; 10.9 µM in assay [2]; more than 54.5 µM in assay [3]; more than 100 µM in assay [4]; more than 100 µM in assay [5]; more than 100 µM in assay [6]. The concentration for total growth inhibition (TGI) in assay [7] was more than 78.7 µM; in assay [8] it was 53 µM.

Consider `CN1CCc2c(Sc3ccc(C(=O)NO)cc3)c3ccccc3n2C1`, for which the GI50 is 2 µM in assay [1]; 2.13 µM in assay [2]; 2.84 µM in assay [3]; 2.08 µM in assay [4]; 1.62 µM in assay [5]; 6.81 µM in assay [6]. In addition, the GI50 in assay [7] was 1.72 µM; in assay [8], 1.36 µM. Besides, the concentration for total growth inhibition (TGI) came to 6.88 µM in assay [1]; 4.84 µM in assay [2]; 9.06 µM in assay [3]; 5.67 µM in assay [4]; 5.84 µM in assay [5]; 51.7 µM in assay [6]. Also, the TGI amounted to 3.67 µM in assay [7] and 11.1 µM in assay [8].

With `Cc1sc2nc(NCCc3c[nH]c4ccc(Cl)cc34)[nH]c(=O)c2c1C`, the GI50 is 2.06 µM in assay [1]; 3.53 µM in assay [2]; 3.12 µM in assay [3]; 3.22 µM in assay [4]; 2.98 µM in assay [5]; 3.07 µM in assay [6]. Besides, the GI50 in assay [7] was 2.17 µM; in assay [8], 2.45 µM. Further, the TGI in assay [1] amounted to 5.64 µM; in assay [2], 13.4 µM; in assay [3] it was 13.1 µM; in assay [4] it was 14.5 µM; in assay [5], 12.7 µM; in assay [6] it was 15.6 µM. For the same molecule, the total growth inhibition concentration (TGI) came to 5.54 µM in assay [7] and 7.9 µM in assay [8].

As for `COC(COC(=O)N1CCN(C=O)CC1)C1=C(N2CC2)C(=O)C(C)=C(N2CC2)C1=O` (stereo unspecified), the TGI stood at 0.919 µM in assay [1]; 4.55 µM in assay [2]; 1.38 µM in assay [3]; 2.11 µM in assay [4]; 22.4 µM in assay [5]; 31.9 µM in assay [6]. The figures for the TGI in assay [7] and in assay [8] were 2.79 µM and 1.52 µM, respectively.

These data come from PubChem BioAssay (NCI).
